Results taken from patent US6071932A, “Carbazolypiperines as GABA uptake inhibitors” (British Technology Group Intercorporate Licensing Limited, priority 1995, dated 2000).
Counter-ions that a name gives are not always drawn.

Biological target: T1, GABA uptake carrier (Rattus norvegicus, UniProt P31647)
T1 construct: A crude membrane preparation was prepared from selected brain areas; from tissue; host or cells: crude membrane (synaptosomal) preparation from selected brain areas
T1 sequence (P31647 1-627): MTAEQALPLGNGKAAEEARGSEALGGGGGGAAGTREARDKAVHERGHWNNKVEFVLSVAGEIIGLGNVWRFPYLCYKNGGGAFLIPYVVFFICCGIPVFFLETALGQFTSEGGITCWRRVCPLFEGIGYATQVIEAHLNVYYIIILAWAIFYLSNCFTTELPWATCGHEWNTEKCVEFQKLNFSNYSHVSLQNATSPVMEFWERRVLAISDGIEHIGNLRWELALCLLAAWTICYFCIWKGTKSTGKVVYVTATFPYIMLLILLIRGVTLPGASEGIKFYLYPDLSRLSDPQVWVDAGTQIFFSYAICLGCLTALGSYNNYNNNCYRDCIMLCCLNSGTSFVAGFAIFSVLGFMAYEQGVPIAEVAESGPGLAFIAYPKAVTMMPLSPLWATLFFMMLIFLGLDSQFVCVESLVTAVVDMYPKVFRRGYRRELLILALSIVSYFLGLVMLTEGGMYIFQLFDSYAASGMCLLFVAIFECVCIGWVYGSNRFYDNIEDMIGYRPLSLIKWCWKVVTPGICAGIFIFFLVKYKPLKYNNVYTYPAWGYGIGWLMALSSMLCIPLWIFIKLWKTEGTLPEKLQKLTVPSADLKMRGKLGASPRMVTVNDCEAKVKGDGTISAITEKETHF
Assay: 3H-GABA uptake in crude brain membrane preparation in presence of NNC 05-0711
Type: biochemical
Conditions: NNC 05-0711 1 mM, 0.9 nM 3H-GABA + 25 nM GABA, pH 7.5, 30° C., 8 min, read-out: IC50 (nM) in vitro, Non-GABA uptake carrier mediated uptake of 3H-GABA
Protocol: ^3 H-GABA uptake was measured by a modification of the method of Fjalland et al., (1978). A crude membrane preparation was prepared from selected brain areas by homogenization in 20 ml of ice-cold 0.32 M sucrose with a hand driven teflon/glass Potter-Elvehjem homogenizer. The homogenate was centrifuged at 4° C. for 10 min. at 1.000×g, and the pellet was discarded. The supernatant was recentrifuged at 4° C. for 20 min. at 20.000×g. The pellet was then homogenized in 50 volumes 0.32 M sucrose. To 300 μl uptake-buffer ([…], 15.3 mM KCl, 6.67 mM MgSO4, 3.83 mM CaCl2, 16.67 mM glucose, 66.67 mM Tris, pH 7.5 at 30° C.) was added 1-(2-(((diphenylmethylene)amino)oxy)ethyl)-1,2,5,6-tetrahydro-3-pyridinecarboxylic acid (NNC 05-0711) (1 mM final concentration), 100 μl test substance and 50 μl tissue suspension. The samples were mixed and incubated at 30° C. for 8 min. Then ^3 H-GABA (0.9 nM final concentration) and unlabelled GABA (25 nM final concentration) was added, and the incubation was continued for an additional 8 min. The reaction was terminated by rapid filtration through Whatman GF/F glass fiber filters under vacuum. The filters were then washed twice in 10 ml of ice-cold isotonic saline, and the tritium trapped on the filters was quantified by conventional scintillation spectroscopy. Non-GABA uptake carrier mediated uptake of ^3 H-GABA was determined in the presence of […].

| Structure (SMILES) | IC50 [nM] |
| --- | --- |
| CCc1ccc2c(c1)c1ccccc1n2CCCN1CCC(O)(c2ccccc2)CC1 [Compound 16, 1-(3-(3-Ethyl-9H-carbazol-9-yl)-1-propyl)-4-phenylpiperidin-4-ol] | 1700 |
| C[C@H](CN1CCC(O)(c2ccccc2)CC1)Cn1c2ccccc2c2ccccc21 [Compound 13, (R)-1-((3-(9H-Carbazol-9-yl)-2-methyl)-1-propyl)-4-phenylpiperidin-4-ol hydrochloride] | 7860 |
| C[C@@H](CN1CCC(O)(c2ccccc2)CC1)Cn1c2ccccc2c2ccccc21 [Compound 11, (S)-1-((3-(9H-Carbazol-9-yl)-2-methyl)-1-propyl)-4-ph-enylpiperidin-4-ol hydrochloride] | 1480 |
| CC(Cl)CC(=O)n1c2ccccc2c2ccccc21 (stereo not drawn) [Compound 23, 1-(9H-Carbazol-9-yl)-3-chlorobutan-1-one] | 3100 |

System: GABA uptake
Assay: not given
Conditions: oral; Yunger, L. M. et al. 1984; cited from earlier work

| Structure (SMILES) | orally active inhibition of GABA uptake |
| --- | --- |
| O=C(O)C1CCCN(CCC=C(c2ccccc2)c2ccccc2)C1 (stereo not drawn) [SK&F 89976A, N-(4,4-diphenyl-3-buten-1-yl)nipecotic acid] | orally active inhibitors of GABA uptake |
| O=C(O)C1=CCCN(CCC=C(c2ccccc2)c2ccccc2)C1 [SK&F 100330A, N-(4,4-diphenyl-3-buten-1-yl)guvacine] | orally active inhibitors of GABA uptake |
| O=C(O)C1CCCN(CCC=C(c2ccccc2)c2cccs2)C1 (stereo not drawn) [SK&F 100604J, N-(4-phenyl-4-(2-thienyl)-3-buten-1-yl)nipecotic acid] | orally active inhibitors of GABA uptake |
| O=C(O)CC1CCN(CCC=C(c2ccccc2)c2ccccc2)C1 (stereo not drawn) [SK&F 100561, N-(4,4-diphenyl-3-buten-1-yl)-homo-β-proline] | orally active inhibitors of GABA uptake |

System: GABA uptake
Assay: not given
Conditions: cited from earlier work

| Structure (SMILES) | inhibition of GABA uptake from the synaptic cleft into presynaptic nerve terminals and glial cells |
| --- | --- |
| O=C(O)C1CCCNC1 (stereo not drawn) [nipecotic acid, 3-piperidinecarboxylic acid] | well-known and potent inhibitor |
